Source: PMC4669143, “Wild Edible Fruit of Prunus nepalensis Ser. (Steud), a Potential Source of Antioxidants, Ameliorates Iron Overload-Induced Hepatotoxicity and Liver Fibrosis in Mice” (PLoS ONE, 2015)
Values after ≈ are worked out from the molar mass of the structure shown.

How the values were obtained:
[1] = system: iron overload induced hepatotoxicity in mice; assay: Serum markers in iron-dextran overloaded mice after oral therapy; type: in vivo, Swiss albino mice; conditions: desirox 20 mg/kg b.w. oral
Description: (one dose every alternative days).
Aspartate amino transferase (ASAT), alanine amino transferase (ALAT), and billirubin levels in the serum were evaluated using commercially available kits from Merck (India). Moreover, alkaline phosphatase (ALP) levels in the serum were measured by a kit procured from Sentinel Diagnostics, Italy.

[2] = Fe2+ chelating activity assay; type: biochemical; conditions: for Iron chelation activity (in words): Fig 12C
Description: (§1) The Fe^2+ chelating ability was determined as described earlier. […] The densitometric analysis of the DNA bands was performed using ImageJ 1.47v tool by the software company NIH, USA. The DNA supercoil protection capacity of the fruit extract was expressed as the [P]50 value, the amount of sample required for 50% protection. The degree of inhibition of Fe^2+-mediated lipid peroxidation was assessed by estimating the TBARS by the method of Ghate et al. 2013 [9] using freshly prepared brain homogenates of Swiss albino mouse brains. The results are expressed as a percentage of inhibition.

[3] = Superoxide anion scavenging assay; type: biochemical; conditions: mean ± S.D., n = 6
[4] = system: Fe2+-mediated lipid peroxidation; assay: Inhibition of Fe2+-mediated lipid peroxidation (TBARS) in brain homogenates; type: biochemical, Swiss albino mouse; conditions: mouse brain homogenate, mean ± S.D., n = 6
Description: as §1

[5] = Peroxynitrite scavenging assay; type: biochemical; conditions: mean ± S.D., n = 6
[6] = Singlet oxygen scavenging assay; type: biochemical; conditions: mean ± S.D., n = 6
[7] = Hypochlorous acid scavenging assay; type: biochemical; conditions: mean ± S.D., n = 6
[8] = DPPH radical scavenging assay; type: biochemical; conditions: mean ± S.D., n = 6
Description: Standard methods were used to evaluate the Fe^3+-reducing capacity of the extract. The DPPH (2,2-diphenyl-1-picrylhydrazyl) scavenging potential of the extract was investigated according to Ghate et al, 2013 [9]. The scavenging percentage of PNME was evaluated from the values of the control and the test samples.

[9] = Hydroxyl radical scavenging assay; type: biochemical; conditions: mean ± S.D., n = 6

O=C(O)c1ccc(-n2nc(-c3ccccc3O)nc2-c2ccccc2O)cc1 [desirox, Deferasirox]
ALAT % change ([1]; D, change versus blank group B): 52.80% | ALP % change ([1]; D, change versus blank group B): 84.44% | ASAT % change ([1]; D, change versus blank group B): 17.36% | Bilirubin % change ([1]; D, change versus blank group B): 10.97% | ALAT ([1]; serum, 21 days (D)): 23.55±1.09 ^X3Y3 Unit/L | ALP ([1]; serum, 21 days (D)): 61.01± 2.44 ^X3Y3 Unit/L | ASAT ([1]; serum, 21 days (D)): 79.35±4.37 ^X1 Y3 Unit/L

O=C(O)CN(CCN(CC(=O)O)CC(=O)O)CC(=O)O [EDTA, Ethylenediamine tetraacetic acid]
IC50 Iron chelating activity ([2]; mean ± S.D., n = 6): 1.27 ± 0.05 µg/mL (≈ 4.35 µM)

COC(=O)[C@H]1[C@H]2C[C@@H]3c4[nH]c5cc(OC)ccc5c4CCN3C[C@H]2C[C@@H](OC(=O)c2cc(OC)c(OC)c(OC)c2)[C@@H]1OC [Reserpine, reserpine]
Iron chelation activity (in words) [2]: failed to show any activity

O.Oc1cc(O)c2c(c1)O[C@H](c1ccc(O)c(O)c1)[C@@H](O)C2 [catechin]
Iron chelation activity (in words) [2]: failed to show any activity

O=c1c(O)c(-c2ccc(O)c(O)c2)oc2cc(O)cc(O)c12 [Quercetin]
IC50 Superoxide anion (O2•−) scavenging [3]: 42.06 ± 1.35 µg/mL (≈ 139 µM)

tannic acid
Iron chelation activity (in words) [2]: most potent iron chelator

Cc1c(C)c2c(c(C)c1O)CCC(C)(C(=O)O)O2 (stereo not shown) [Trolox, 6-hydroxy-2,5,7,8-tetramethylchroman-2-carboxylic acid]
IC50 Lipid peroxidation [4]: 6.76 ± 0.17 µg/mL (≈ 27 µM)

O=C(O)c1cc(O)c(O)c(O)c1 [Gallic acid]
IC50 Peroxynitrite (ONOO-) scavenging [5]: 876 ± 570 µg/mL (≈ 5150 µM)

O=C(O)CCCC[C@@H]1CCSS1 (racemic) [Lipoic acid]
IC50 Singlet oxygen (1O2) scavenging [6]: 46.15 ± 1.16 µg/mL (≈ 224 µM)

O=C1O[C@H]([C@@H](O)CO)C(O)=C1O [Ascorbic acid]
Iron chelation activity (in words) [2]: failed to show any activity | IC50 Hypochlorous acid (HOCl) scavenging [7]: 235.96 ± 5.75 µg/mL (≈ 1340 µM) | IC50 DPPH scavenging [8]: 5.29 ± 0.28 µg/mL (≈ 30 µM)

OC[C@@H](O)[C@@H](O)[C@H](O)[C@H](O)CO [Mannitol]
IC50 Hydroxyl radical (OH•) scavenging [9]: 571.45 ± 20.12 µg/mL (≈ 3140 µM)
